Columns and labels:
[1] = test system: LDL; experiment: LDL antioxidation test (CuCl2-initiated LDL oxidation, lag time); format: biochemical, human; conditions: Table 2, 10 μM; for Lag Time: control 20 min
[2] = Distribution of isoflavones in lipoprotein subfractions of whole plasma; format: in vitro ADME
Procedure: Cpd. 1 ([…]), was incubated with whole plasma for 0 h, 4 h and 8 h. The different subfractions LDL/VLDL, HDL and protein (lipoprotein free) were then analysed for their Cpd. 1 concentration. Cpd. 1 was used because it had the most similar polarity to the isoflavone synthetic derivatives.

[3] = test system: rat isolated aortic rings; experiment: Protection against endothelium damage induced by oxidised LDL, acetylcholine dilatation (Protocol 3); conditions: ox-LDL 0.3 mg protein/ml; β-estradiol 10 pg/ml, Cpd. 5 300 ng/ml, Cpd. 7 1 μg/ml, Cpd. 8 and 12 3 μg/ml
Procedure: (§1) Male Sprague-Dawley rats (250±50 g) were gassed with 80% CO2 and 20% O2 until killed. The thoracic aorta was excised and quickly placed in ice-cold Krebs modified solution composed of NaCl […], […] 4.7 mM, MgSO4 7H2O 1.17 mM, NaHCO3 25 mM, KH2PO4 1.18 mM, CaCl2 2.5 mM, glucose 11 mM and EDTA 0.03 mM. It was then trimmed of fat and connective tissue and cut into 2-3 mm wide rings. Each ring was mounted on two parallel stainless steel hooks in a single water-jacketed 3 ml organ bath containing modified Krebs solution maintained at 37° C. and bubbled with 95% O2 plus 5% CO2. The lower hook was attached to a movable support leg and the upper hook to an FTO3 force transducer (Grass Scientific Instruments, Mitutoyo, Japan) for isometric recordings. Changes in force were amplified (Quadbridge amplifier, Scientific Concepts Inc., Victoria, Australia) and recorded on a MacLab 8E data acquisition system (Adinstruments Pty Ltd., NSW, Australia) linked to an Apple computer (Apple Computer Inc, Cupertina, Calif.). Rings were set at an initial tension of 2 g and allowed to equilibrate for 30 minutes after which time they were re-set to 2 g tension before the commencement of each experimental protocol.
Full concentration response curves to phenylephrine were constructed from which the concentration giving a submaximal contraction of approximately 80% was selected (usually 0.3 μM). Tissues were then constricted with phenylephrine at the selected concentration and allowed to plateau. Full concentration dilatory curves were then constructed to acetylcholine. […]
Human plasma was obtained from the blood bank. […] The protein content of the final LDL fraction obtained was determined by the simplified protein assay method of Lowry. […]
Contractile responses are expressed in g tension (mean+standard error of the mean). Dilatory responses are expressed as a percentage of the contractile force generated by the pre-constricting agent used. […]

[4] = test system: rat thoracic aorta; experiment: Contractile curves to noradrenaline in rat isolated aortic rings (Protocol 1); conditions: test compound 1 μg/ml
Procedure: as §1
Full concentration-contractile curves were obtained to noradrenaline (0.1 nM-[…]) in the absence and presence of β-estradiol (1 μg/ml); Cpd. 5 (0.1 and 1 μg/ml); Cpd. 7 (0.1 and 1 μg/ml); Cpd. 8 (0.1 and 1 μg/ml) and Cpd. 12 (1 μg/ml) and the vehicle equi-volume DMSO. Only one compound at any one concentration was tested on any one ring from any one animal.
(§2) Contractile responses are expressed in g tension (mean+standard error of the mean). Dilatory responses are expressed as a percentage of the contractile force generated by the pre-constricting agent used. Individual concentration-response curves for noradrenaline and acetylcholine±the interventions used were fitted to a logistic equation of the form […] where E is the response, M is the maximum response and K is the concentration eliciting 50% of the maximum response (ie neg log EC50).

[5] = test system: rat isolated aortic rings; experiment: Vasodilatory capacity in noradrenaline pre-constricted aortic rings and mechanism of action (Protocol 2a/2b)
Procedure: as §1
A full concentration response to noradrenaline was obtained. From this the concentration producing a submaximal contraction of approximately 80% was selected (0.03-0.3 μM). The ring was then constricted with this submaximal concentration and allowed to plateau before full concentration-relaxation curves were obtained to β-estradiol and Cpds. 5, 7, 8 and 12 and the vehicle DMSO (at equi-volume). Only one compound was studied with any one ring from any one animal.
Full relaxation curves were obtained to Cpds. 5, 7, 8 and 12 and β-estradiol in the absence and presence of the endothelium (rings were denuded of endothelium by gentle rotation of the lumen against a rough surface), the nitric oxide synthase inhibitor nitro-L-arginine (NOLA 10 μM; with the exception of Cpd. 8, due to limited supply of the compound), KCl 40 mM (to inhibit endothelium derived hyperpolarising factor), the cyclo-oxygenase inhibitor indomethacin (10 μM) and the soluble guanylate cyclase inhibitor 1H-[1,2,4]oxadiazolo[4,3-a]quinoxalin-1-one (ODQ; 10 μM). Only one compound with only one intervention was tested on any one ring from any one animal.
as §2

[6] = test system: IMA-derived human VSMC primed with PDGF BB; experiment: PDGF BB-induced VSMC DNA synthesis, proliferation and cell number; format: cell-based; conditions: Homo sapiens, VSMC, 3 h, read-out: inhibition of PDGF BB-induced DNA synthesis ([3H]-thymidine incorporation)
Procedure: Cell proliferation was induced by a variety of growth factors such as serum and platelet derived growth factor (PDGF).
Media was changed to LG serum-free DMEM and cells were treated with [^3H]-thymidine at 1 μCi/well for 3 hours. Cells were washed twice with ice cold Dulbecco's PBS. Next, ice cold 0.2M HClO4 (1 ml/well) was added and cells were incubated on ice for 30 min. Cells were then washed three times with 0.5 ml/well of ice cold 0.2M HClO4. Media (0.5 ml/well of 0.2 M NaOH) was replaced and cells were incubate at 37° C. After 1 hour, cells were treated with acetic acid (6%, 0.2 ml/well), transferred to scintillation vials with 3 ml scintillation liquid (Instagel) and counted for 2 min per vial.
The effect of Cpd. 5 and Cpd. 7 was tested further in IMA-derived human VSMC primed with PDGF BB instead of serum. […] (FIG. 12). This effect was equivalent to that observed with estradiol. Cpd.
In further experiments Cpd. […] 7 at 100 nmol/L), indicating ER-mediation. […] 7 (1-100 nmol/L).

[7] = 45 mg over 5 to 10 weeks; cited from earlier work

COc1ccc(-c2coc3cc(O)cc(O)c3c2=O)cc1 [Biochanin]
% Increase in Time [1]: 0% | Lag Time [1]: 20 min

O=c1c(-c2ccc(O)cc2)coc2cc(O)ccc12 [Cpd. 1, daidzein]
amount associated with the lipoproteins, dependence on time and concentration [2]: increased with time, but not with concentration | % Increase in Time [1]: 0% | Lag Time [1]: 19 min

C[C@]12CC[C@@H]3c4ccc(O)cc4CC[C@H]3[C@@H]1CC[C@@H]2O [β-estradiol, 1,3,5[10]-estratriene-3,17β-diol, reference compound]
protective effect against ox-LDL inhibition of acetylcholine dilatation (in words) [3]: diminished the effect of ox-LDL | y max, Noradrenaline + Test compound (B) ([4]; mean ± SEM): 0.22 ± 0.12 g tension | y max Difference (A − B) ([4]; noradrenaline alone minus noradrenaline + compound): 2.1 ± 0.31 g tension | vasodilatory response: effect of high KCl levels ([5]; KCl 40 mM): inhibited | vasodilatory response: effect of nitro-L-arginine (NOLA) ([5]; NOLA 10 μM): inhibited | vasodilatory response: effect of ODQ ([5]; ODQ 10 μM): inhibited | vasodilatory response: effect of removal of the endothelium ([5]; denuded vs intact endothelium): inhibited | vasodilatory response: effect of indomethacin ([5]; indomethacin 10 μM): did not influence | inhibition at 0.001 µM [6]: 27% | inhibition at 0.01 µM [6]: 27% | inhibition at 0.1 µM [6]: 33%

O=c1c(-c2ccc(O)cc2)coc2cc(O)cc(O)c12 [Cpd. 3, genistein]
% Increase in Time [1]: 0% | Lag Time [1]: 20 min | effect on blood lipid concentrations [7]: no significant effect on blood lipid concentrations

COc1cc2c(=O)c(-c3ccc(O)cc3)coc2cc1O [Glycitein]
% Increase in Time [1]: 0% | Lag Time [1]: 20 min

From patent US20050119301A1, “Treatment of restenosis” (priority 2001, published 2005)
